Results published in patent US20200255436A1, “CORTICOTROPIN RELEASING FACTOR RECEPTOR ANTAGONISTS” (Spruce Biosciences, Inc., priority 2019, published 2020).
Read-outs that look alike come from different tables or passages of the source.

What was measured:
[1] = Phase 2 study in adults with classic CAH: safety; type: in vivo, human; details: patients with CAH, 5-fold range of doses
Text: Cohort A of the Phase 2 Study includes a 6-week, multiple-dose, dose escalation study of Compound 1 for the treatment of adults with classic CAH. After screening, eligible patients will be enrolled into a 6-week treatment period followed by a 4-week washout/safety follow-up period.
This cohort will be conducted in approximately 9 patients, who will receive Compound 1 daily for up to 6 weeks. Compound 1 will be administered as an oral daily dose. Patients will undergo titration of Compound 1 through three escalating dosage strengths at 2-week intervals. Patients will have overnight PK/PD assessments performed at baseline, which include an pre-dose overnight assessment and a post-dose overnight assessment for PK/PD following administration of the first dose. At the end of each 2-week dosing period, patients will return for single overnight visits for steady-state PK/PD assessments. A follow-up outpatient visit will occur 30 days after their last dose. Upon completion of the initial cohort (Cohort A), the study will proceed to a multiple ascending dose (MAD) design with up to 3 sequential cohorts (Cohorts B, C, and D) to further evaluate the safety, PK, and PD of various SPROO1 dosing regimens and to identify an optimal dose regimen. […]
• 1. […] To assess the efficacy of Compound 1 in subjects with classic CAH as measured by percent and absolute change in 17-OHP compared to baseline.

[2] = Study 2 Part A: multiple-dose (14 days) pharmacokinetics; type: in vivo, human; details: for AUC(0-t): read-out: AUC0-24h; for Tmax: median; for concentration at 14 day: read-out: Cavg; for half-life: po, half-life calculated by accumulation ratio, read-out: Effective t1/2 (converted)
Method: The 2-part multiple-dose study, Study 2, determined the safety and tolerability of repeated daily doses of Compound 1 and investigated the effects on biomarkers of relevance for the treatment of alcohol dependence.
PK were also evaluated in the multiple-dose, dose-escalation study, Study 2. In Part A of the study, subjects were divided into 3 cohorts and received 50, 150, or 200 mg Compound 1 or placebo for 14 consecutive days (at least 6 subjects received Compound 1 and 2 subjects received placebo in each cohort). […] All dosing occurred in the fed state. An assessment of diurnal cortisol levels, plus when under conditions of glucose clamp, were also carried out both prior to and during the dosing period.
Consistent with the single-dose study (Study 1), concentrations appeared to decline in a bi-exponential manner, characterized by a rapid decrease within the first 24 hours. […] The Tmax appeared to be consistent across doses. Overall half-lives, weight normalized CL/F and V/F were consistent for 150 and 200 mg. However, the values for these latter 2 parameters were almost doubled at the 50-mg dose level. Variability (CV%) for apparent clearance and volume of distribution were large and not reduced with weight-normalization.
Table 8 presents the results of the dose proportionality assessment for the AUC0-24 and Cmax over the tested dose range.

[3] = human, plasma, oral, 50 mg, 50 mg daily, Day 14, geometric mean
[4] = human, plasma, oral, 50 mg, Day 1, geometric mean
[5] = human, plasma, oral, 150 mg, 150 mg daily, Day 14, geometric mean
[6] = human, plasma, oral, 150 mg, Day 1, geometric mean
[7] = human, plasma, oral, 200 mg, 200 mg daily, Day 14, geometric mean
[8] = human, plasma, oral, 200 mg, Day 1, geometric mean
[9] = human, plasma, oral, 50 mg daily, Day 14, geometric mean
[10] = human, plasma, oral, 150 mg daily, Day 14, geometric mean
[11] = human, plasma, oral, 200 mg daily, Day 14, geometric mean

RA (accumulation ratio, Day 14 AUC0-24/Day 1 AUC0-24) ([2]; 50 mg daily): 2.80
CLaa/F ([2]; 50 mg daily, Day 14, geometric mean): 183 L/h
WT-norm Claa/F ([2]; 50 mg daily, Day 14, weight normalized): 48 mL/min/kg
RA (accumulation ratio, Day 14 AUC0-24/Day 1 AUC0-24) ([2]; 150 mg daily): 2.51
CLaa/F ([2]; 150 mg daily, Day 14, geometric mean): 101 L/h
WT-norm Claa/F ([2]; 150 mg daily, Day 14, weight normalized): 23.7 mL/min/kg
RA (accumulation ratio, Day 14 AUC0-24/Day 1 AUC0-24) ([2]; 200 mg daily): 3.65
CLaa/F ([2]; 200 mg daily, Day 14, geometric mean): 98 L/h
WT-norm Claa/F ([2]; 200 mg daily, Day 14, weight normalized): 25 mL/min/kg
Cmax [2, 3]: 50.3 ng/mL
AUC(0-t) [2, 3]: 273 ng·h/mL
Vd/F at 14 days ([2]; human, plasma, oral, 50 mg, 50 mg daily, Day 14, geometric mean, read-out: Vss/F): 12900 L
Tmax ([2]; human, plasma, oral, 50 mg, 50 mg daily, Day 14): 5 h
Vd/F at 14 days ([2]; human, plasma, oral, 50 mg, 50 mg daily, Day 14, weight normalized, read-out: WT-norm Vss/F): 204 L/kg
Cmax [2, 4]: 22.7 ng/mL
AUC(0-t) [2, 4]: 97.6 ng·h/mL
Tmax ([2]; human, plasma, oral, 50 mg, Day 1): 4.52 h
Cmax [2, 5]: 222 ng/mL
AUC(0-t) [2, 5]: 1480 ng·h/mL
Vd/F at 14 days ([2]; human, plasma, oral, 150 mg, 150 mg daily, Day 14, geometric mean, read-out: Vss/F): 6170 L
Vd/F at 14 days ([2]; human, plasma, oral, 150 mg, 150 mg daily, Day 14, geometric mean, read-out: Vz/F): 17600 L
Tmax ([2]; human, plasma, oral, 150 mg, 150 mg daily, Day 14): 5 h
Vd/F at 14 days ([2]; human, plasma, oral, 150 mg, 150 mg daily, Day 14, weight normalized, read-out: WT-norm Vss/F): 86.5 L/kg
Cmax [2, 6]: 127 ng/mL
AUC(0-t) [2, 6]: 590 ng·h/mL
Tmax ([2]; human, plasma, oral, 150 mg, Day 1): 5 h
Cmax [2, 7]: 314 ng/mL
AUC(0-t) [2, 7]: 2040 ng·h/mL
Vd/F at 14 days ([2]; human, plasma, oral, 200 mg, 200 mg daily, Day 14, geometric mean, read-out: Vss/F): 5080 L
Vd/F at 14 days ([2]; human, plasma, oral, 200 mg, 200 mg daily, Day 14, geometric mean, read-out: Vz/F): 16300 L
Tmax ([2]; human, plasma, oral, 200 mg, 200 mg daily, Day 14): 5 h
Vd/F at 14 days ([2]; human, plasma, oral, 200 mg, 200 mg daily, Day 14, weight normalized, read-out: WT-norm Vss/F): 77.4 L/kg
Cmax [2, 8]: 143 ng/mL
AUC(0-t) [2, 8]: 559 ng·h/mL
Tmax ([2]; human, plasma, oral, 200 mg, Day 1): 5 h
AUC(0-inf) [2, 9]: 980 ng·h/mL
concentration at 14 day [2, 9]: 11.4 ng/mL
AUC(0-inf) [2, 10]: 4680 ng·h/mL
concentration at 14 day [2, 10]: 61.7 ng/mL
AUC(0-inf) [2, 11]: 5660 ng·h/mL
concentration at 14 day [2, 11]: 85 ng/mL
half-life at 2 weeks ([2]; human, plasma, oral, following multiple daily dosing for 2 weeks): > 100 h
half-life ([2]; human, plasma, 50 mg daily, Day 14): 37.7 h
half-life ([2]; human, plasma, 150 mg daily, Day 14): 32.7 h
half-life ([2]; human, plasma, 200 mg daily, Day 14): 52 h
Compound: CCC(CC)c1cc(C)nc2c(-c3sc(N4CCOCC4)nc3Cl)c(C)nn12 [Compound 1, 4-(4-chloro-5-(2,5-dimethyl-7-(pentan-3-yl)pyrazolo[1,5-a]pyrimidin-3-yl)thiazol-2-yl)morpholine]
tolerability [1]: generally well-tolerated
